“Also recorded” adds a separate entry of the source.

The text below walks through data of patent US5843916A, “Cyclic amp analogues, individually and in pairs, to inhibit neoplastic cell growth” (priority 1994, dated 1998).

The subject of test [1] is mammary carcinomas induced by DMBA. The following applies: treatment of hosts; cited from earlier work.
The subject of test [2] is spindle cell sarcoma with multiple metastasis. To be noted: cited from earlier work.
Test [3] has as its target T1, Protein kinase type I (cAKI) (Oryctolagus cuniculus, UniProt G1TDN4).
T1 construct: prepared from rabbit skeletal muscle and bovine heart; from tissue; host or cells: rabbit skeletal muscle
The test is described as follows: Protein kinase activation (Table 15). The class given is biochemical, rabbit (skeletal muscle). The following applies: half-maximum activation; U. M.: unmeasurable. As to the method:
ATP to Kemptide as described by Ogreid et al., Eur. J. Biochem. 150: 219-227 (1985).
Protein kinases types I (cAKI) and II (cAKII) were
prepared from rabbit skeletal muscle and bovine heart,
respectively, as described in D.o slashed.skeland et al. (J. Biol.
of the protein kinase in Ogreid et al. (Eur. J. Biochem.

Test [4] concerns MCF-7ras breast cancer cell line. The test is described as follows: Synergistic growth inhibition by analogue combinations (Table 2). The format is cell-based, human. To be noted: footnote of Table 2. As to the method: All breast cancer cell lines were grown in IMEM supplemented with 10% fetal bovine serum, HEPES 20 mM, penicillin-streptomycin, and extra glutamine. Colon carcinoma cell lines were grown in EMEM supplemented with 10% FBS, EMEM, NEAA, HEPES 20 mM, extra glutamine, and penicillin-streptomycin. The cells were grown at 37° C. in humidified incubators in an atmosphere of 5% CO2.
For cell growth experiments, 2-3×10^5 cells/60 mm dish were seeded, and 24 hours later (Day 0), the medium was removed, and fresh medium and the additives were added then and every 48 hours thereafter. The compounds of the present invention were added using 100X concentrated stock solutions. At desired times, cell counts in duplicate were performed on a Coulter counter after harvesting the cells with gentle trypsinization.
Synergism quotient was defined as the net growth inhibitory effect of the analogue combination divided by the sum of the net analogue effects on growth inhibition. A quotient of >1 indicates a synergistic effect, while a quotient of <1 indicates an antagonistic effect.
Synergism of growth inhibition was determined by
treatment of cells with C-6 analogues and C-8 analogues alone
and in combination at Day 0 and Day 2 and counting the cell
^a Data are expressed as percentage growth inhibition in reference to
the growth of untreated control cells and represent average values and
ranges (in parentheses) of duplicate cell counts on three or more separat
experiments. The values for percentage growth inhibition of each analogue
^b The synergism quotient was defined as previously described.

For test [5], the system named is LS-174T human colon carcinoma cells. The test is described as follows: Additive growth inhibition with 8-Cl-cAMP (Table 19). The class given is cell-based. The following applies: Homo sapiens, LS174T, 96 h; 1 μM; 4 days. As to the method: The medium was changed every 48 hours.
At desired times, cell counts were performed in duplicate on a Coulter Counter after harvesting cells with gentle trypsinization.
The analogues were added at 24

T1 sequence (G1TDN4 1-381): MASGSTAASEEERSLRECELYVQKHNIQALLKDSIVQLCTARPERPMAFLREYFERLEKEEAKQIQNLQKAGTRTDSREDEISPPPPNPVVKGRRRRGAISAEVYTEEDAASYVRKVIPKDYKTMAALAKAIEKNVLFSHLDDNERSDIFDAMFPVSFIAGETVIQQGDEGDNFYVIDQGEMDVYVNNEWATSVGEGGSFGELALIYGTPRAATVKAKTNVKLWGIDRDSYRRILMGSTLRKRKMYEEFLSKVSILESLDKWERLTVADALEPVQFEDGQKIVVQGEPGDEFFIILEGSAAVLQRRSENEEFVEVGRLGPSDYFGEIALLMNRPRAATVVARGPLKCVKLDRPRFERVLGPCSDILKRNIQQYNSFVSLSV

As for `CCCC(=O)Nc1ncnc2c1ncn2[C@@H]1O[C@@H]2COP(=O)(O)O[C@H]2[C@H]1OC(=O)CCC` [DBcAMP, N^6, O^2' -dibutyryl-cAMP, reference compound], the “tumor biochemistry during growth arrest” value in test [1] was “estrogen binding decreases whereas cAMP binding and cAMP-dependent protein kinase activity increase; also recorded: sharp reduction of the translated p21 protein”. In addition, the “tumor size” value in test [2] (3-6 mg/kg iv, five hours daily, days 1-9 and 47-56) was “The tumor size plateaued and even decreased during both infusion periods”. In addition, the “tumor histology” value in test [2] (biopsied on days 2, 14, and 60) was “evidence of differentiation”.

As to `Nc1ncnc2c1nc(Cl)n2[C@@H]1O[C@@H]2COP(=O)(O)O[C@H]2[C@H]1O` [8-Cl-cAMP, 8-chloro-adenosine 3': 5'-monophosphate], in test [3], the “Activation Constant (Ka), cAKI” value is listed as 1.8 × 10^-8. In addition, the “percentage growth inhibition of each analogue when added alone” value in test [4] was found to be 20%. In addition, the inhibition (commonly the relative decrease from the control value, in per cent) at 1 µM in test [5] amounted to 30%.
